Results as given in patent US7276604B2, “Crystalline form of the sodium salt of 3-pyridyl-1-hydroxyethylidene-1,1-bisphosphonic acid” (Zentiva A.S., priority 2002, dated 2007).
Counter-ions that a name gives are not always drawn.

Columns and labels:
Format in all cases: physicochemical
[1] = Drying in vacuum oven and re-uptake of water (stability of water content, Karl Fischer / TGA); details: for hygroscopicity of the dried product: after drying in a vacuum oven; for water content after standing at 100% relative air humidity: within two hours
From the text: An useful example of such a hydrate is a modification that is characterized by water content 20 up to 23%, specially with 22.8 w. % of water, and sodium content 5.5 up to 7.5%, specially 6.4 up to 6.7 w. %. The specified water content is built in the crystal lattice and the mentioned crystalline modification is thermodynamically stable. By drying with several different drying regimes, the mentioned crystalline modification was dried to the water content corresponding to the pentahemihydrate, the monohydrate and the anhydrous form of sodium 3-pyridyl-1-hydroxyethylidene-1,1-bisphosphonate. When the substance is left standing on the air, the water content stabilizes spontaneously at the original level. Time that it takes for the water content to stabilize depends on relative humidity in the environment in which the dried substance is placed.
(§1) Water content in the substance was determined using a method according to Karl Fischer and TGA analyses. Sodium content in the substance was determined using acidobasic titration and AAS. Solubility tests were performed according to the Technical Guide European Pharmacopeia.
The dried product is hygroscopic. If the substance is left standing at room temperature and usual relative air humidity, the water content returns to the original level within 12 hours.
In the pentahydrate dried in a vacuum oven at 105° C., the substance's water content decreases to 3% after six hours. The dried product is hygroscopic. If the substance is left standing at room temperature and usual relative air humidity, the water content increases with a speed of about 0.5% an hour. Within 11 days, the substance's water content returns to about 20 weight %.
(§2) In trihydrate of the trisodium salt dried in a vacuum oven at 105° C., the substance's water content decreases to 1.1% after 6 hours. The dried product is hygroscopic. If the substance is placed in an environment with 100% relative air humidity, the water content returns to the original level within two hours.
as §2, with “disodium” for “trisodium”, “approximately 1.7%” for “1.1%”, “the” for “the original”, “level of approximately 5.2%” for “level”

[2] = Solubility test in water (Technical Guide European Pharmacopeia); details: for dissolution observed: 0.1, 0.9 and 2.0 ml added gradually, 25° C. for 15 min; for proportion of the dissolved substance: 3.0 ml added in total to about 100 mg, 25° C., HPLC
Description: as §1
(§3) 0.1 ml; 0.9 ml and 2.0 ml of water were gradually added to a 100.25 mg sample of risedronate monosodium salt pentahemihydrate. The suspension was mixed for about 1 min and tempered to 25° C. for 15 min after each addition of water. […] The proportion of the dissolved substance was determined to be 100% using HPLC.
as §3, with “98.78” for “100.25”, “pentahydrate.” for “pentahemihydrate.”

[3] = Solubility test in 0.1 M HCl with pH 1.1 (Technical Guide European Pharmacopeia); details: for dissolution observed: 0.1 M HCl pH 1.1, 0.1, 0.9, 2.0 and 7.0 ml added gradually, 25° C. for 15 min; for proportion of the dissolved substance: 0.1 M HCl pH 1.1, 10.0 ml added in total to about 100 mg, 25° C., HPLC
Description: as §1
(§4) 0.1 ml; 0.9 ml, 2.0 and 7.0 ml of 0.1 M HCl with pH 1.1 were gradually added to a 106.8 mg sample of risedronate monosodium salt pentahemihydrate. The suspension was mixed for 1 min and tempered to 25° C. for 15 min after each addition of acid. […] The proportion of the dissolved substance was determined to be 9.46% using HPLC.
as §4, with “99.07” for “106.8”, “pentahydrate.” for “pentahemihydrate.”, “31.62%” for “9.46%”

[4] = after drying at 105° C., 100% relative air humidity
[5] = vacuum oven at 105° C., after 6 hours

For O=P(O)(O)C(O)(Cc1cccnc1)P(=O)(O)O [trihydrate of the trisodium salt, trisodium 3-pyridyl-1-hydroxyethylidene-1,1-bisphosphonate], the “time for water content to return to the original level” value [1, 4] was “two”, the “hygroscopicity of the dried product” value [1] was “hygroscopic” and the “water content after drying” value [1, 5] was 1.1%.

For O=P(O)(O)C(O)(Cc1cccnc1)P(=O)(O)O [Risedronate disodium salt monohydrate, disodium 3-pyridyl-1-hydroxyethylidene-1,1-bisphosphonate], the “water content after standing at 100% relative air humidity” value ([1]; after drying at 105° C., 100% relative air humidity, listed as trihydrate of the disodium salt) was “approximately 5.2%”, the “period in which the water content mostly stabilizes at the given value” ([1]; dried at different conditions, then high relative humidity, 'mostly') was “less than 12 hours” and the “water content after drying” value ([1]; vacuum oven at 105° C., after 6 hours, listed as trihydrate of the disodium salt) was “approximately 1.7%”.

For O=P(O)(O)C(O)(Cc1cccnc1)P(=O)(O)O [risedronate monosodium salt pentahemihydrate] [monosodium 3-pyridyl-1-hydroxyethylidene-1,1-bisphosphonate, reference compound], the dissolution observed [2] was “completely dissolved”, the “proportion of the dissolved substance” value [2] was 100% and the dissolution observed [3] was “did not dissolve completely”. For the same compound, the “proportion of the dissolved substance” value [3] was 9.46%.

With O=P(O)(O)C(O)(Cc1cccnc1)P(=O)(O)O [risedronate monosodium salt pentahydrate, monosodium 3-pyridyl-1-hydroxyethylidene-1,1-bisphosphonate] the dissolution observed [2] was “completely dissolved”, the “proportion of the dissolved substance” value [2] was 100% and the “solubility in 0.1 M hydrochloric acid compared with the pentahemihydrate form” value ([3]; 0.1 M HCl pH 1.1) was “significantly more soluble”. The dissolution observed [3] was “did not dissolve completely”, the “proportion of the dissolved substance” value [3] was 31.62% and the “time for water content to return to the original level” value ([1]; after drying at 50° C., room temperature and usual relative air humidity) was ≤ 12 h. For the same compound, the “water content after standing at 100% relative air humidity” value [1, 4] was 22.7%, the “speed of water content increase” value ([1]; after drying at 105° C., room temperature and usual relative air humidity) was “about 0.5 % an hour” and the “water content after standing” value ([1]; after drying at 105° C., room temperature and usual relative air humidity, within 11 days) was “about 20 weight %”. For the same compound, the “hygroscopicity of the dried product” value [1] was “hygroscopic”, the “stability of the regained water content” value ([1]; usual lab conditions) was “stable and does not change” and the “water content after drying” value ([1]; vacuum oven at 50° C., after six hours) was 11.5%. The “water content after drying” value [1, 5] was 3%.
